Measured values from a compilation of properties of binary mixtures (doi:10.1016/j.molliq.2022.120564).

Assay: xn = mol fraction of the nth substance listed
Details: 298.15 K, 101.3 kPa

CC(=O)[O-].CCCC[N+]1(C)CCCC1 + O
Details | electrical conductivity [S/m]
x1 = 0.005 | 1.84
x1 = 0.029 | 2.8
x1 = 0.046 | 2.63
x1 = 0.069 | 2.17
x1 = 0.095 | 1.79
x1 = 0.111 | 1.26
x1 = 0.138 | 1.18
x1 = 0.215 | 0.8
x1 = 0.253 | 0.575
x1 = 0.305 | 0.495
x1 = 0.396 | 0.339
x1 = 0.5 | 0.193
x1 = 0.658 | 0.142
